Laboratory results reported in patent US9763905B2, “Therapeutic target for the treatment of cancers and related therapies and methods” (CHILDREN'S MEDICAL CENTER CORPORATION, priority 2013, dated 2017).
Entries after “also recorded” stand apart in the source; their conditions may differ. Where two headings read alike, the source gives them in different places.

Tests used:
[1] = system: human foreskin fibroblast (Hs27) control cell line; assay: Cell viability assay (Cell Titer Blue), Examples 1, 3, 4; assay type: cell-based; conditions: DHA 25-250 μM 144 hours, GW9508 25-150 μM 72 hours, TAK-875 0-0.4 μM
Procedure: (§1) The human foreskin fibroblast (Hs27) and human melanoma (A2058, A375, SK-Mel 3) cell lines were purchased from ATCC (Manassas Va.). Cells were plated in 48-well plates at a concentration of 7.5×10^3cells/well in either DMEM (Hs27, A2058, A375; Invitrogen/GIBCO, Grand Island N.Y.) or McCoy's 5a medium (SK-Mel 3; Invitrogen/GIBCO) supplemented with 10% FBS (Invitrogen/GIBCO) and incubated at 37° C. in a humidified atmosphere with 5% CO2. After 24 hours the medium was replaced with either DMEM (HS27, A2058, A375) or McCoy's 5a Medium (SK-Mel 3) containing 1% heat […] (Invitrogen/GIBCO) and 0.1% FA-free BSA (Invitrogen/GIBCO) with various concentrations of DHA (Martek, Columbia Md.) prepared in 4 μL of ETOH. DHA was provided at 25-250 μM, and in the studies that follow GW9508 was provided at 25-150 μM and TAK-875 was provided at 0-0.4 μM. Controls were treated with 4 μL of ETOH. All concentrations were tested in quadruplicate.
(§2) Following 144 hours of DHA treatment cells were trypsinized (Trypsin-EDTA; Invitrogen/GIBCO) and viable cells were counted using an absorbance-based cell viability assay (Cell Titer Blue Cell Viability Assay; Promega, Madison Wis.). During the treatment, medium was changed at 72 hours for the DHA studies. Cell counts were reported as a percent of the control cell count.
(§3) Human foreskin fibroblast (Hs27) and human melanoma (A2058, A375, SK-Mel 3) cell lines (ATCC, Manassas Va.) were plated in 48-well plates at a concentration of 7.5×10^3cells/well in either DMEM (Hs27, A2058, A375; Invitrogen/GIBCC, Grand Island N.Y.) or McCoy's 5a Medium (SK-Mel 3; Invitrogen/GIBCO) supplemented with 10% FBS (Invitrogen/GIBCO) and incubated at 37° C. in a humidified atmosphere with 5% CO2. After 24 hours the medium was replaced with either DMEM (HS27, A2058, A375) or McCoy's 5a Medium (SK-Mel 3) containing 1% heat inactivated-FBS (Invitrogen/GIBCO) and 0.1% FA-free BSA (Invitrogen/GIBCO) with various concentrations of GW9508 (Cayman Chemical, Ann Arbor Mich.) prepared in 4 μL of ETOH, as described in Example 1. Controls were treated with 4 μL of ETOH. All concentrations were tested in quadruplicate.
(§4) Following 72 hours of treatment (GW9508) cells were trypsinized (Trypsin-EDTA; Invitrogen/GIBCO) and viable cells were counted using an absorbance-based cell viability assay (Cell Titer Blue Cell Viability Assay; Promega, Madison Wis.). Cell counts are reported as a percent of the control cell count.
(§5) Given the high expression of GPR40 and the negligible expression of GPR120 by the human melanoma cells evaluated, further studies were performed using the selective, potent and orally bioavailable GPR40 agonist, TAK-875 (Selleck Chemicals) consistent with the methods disclosed in Examples 1 and 3. In particular, such studies were performed to evaluate the ability of TAK-875 to exert an inhibitory effect on human melanoma cell lines in vitro relative to a control fibroblast cell line (Hs27) and the human breast cancer cell line MCF-7, as well as to further evaluate the mechanisms via which compounds such as omega-3 fatty acids exert their cellular effects on human melanoma.

[2] = system: A2058 human melanoma cell line; assay: as above; assay type: cell-based; conditions: DHA 25-250 μM 144 hours, GW9508 25-150 μM 72 hours, TAK-875 0-0.4 μM
Procedure: as §1, §2, §3, §4, §5

[3] = system: A375 human melanoma cell line; assay: as above; assay type: cell-based; conditions: DHA 25-250 μM 144 hours, GW9508 25-150 μM 72 hours, TAK-875 0-0.4 μM
Procedure: as §1, §2, §3, §4, §5

[4] = system: SK-Mel3 human melanoma cell line; assay: as above; assay type: cell-based; conditions: DHA 25-250 μM 144 hours, GW9508 25-150 μM 72 hours, TAK-875 0-0.4 μM
Procedure: as §1, §2, §3, §4, §5

[5] = system: human breast cancer cell line MCF-7; assay: Cell viability assay, Example 4; assay type: cell-based; conditions: TAK-875
[6] = system: SK-Mel 3 human melanoma cell line; assay: Cell viability assay (Cell Counting Kit-8), Example 5; assay type: cell-based; conditions: DHA 0-250 μM, TAK-875 0-0.4 μM, 6 days
Procedure: (§6) Neuroblastoma cell lines used to perform the present studies include: ShSY5Y, IMR-32, SK-NSH, SK-NAS. Melanoma cell lines used include: A2058, A375, and SK-Mel3. Medullary thyroid carcinoma cell line used includes: TT. Malignant peripheral nerve sheath tumor used includes: sNF94.3. Control cell lines used included: human foreskin fibroblast line (Hs27), breast cancer cell lines (MCF-7 and […]), human umbilical vein endothelial cells (HUVEC) and human melanocytes (HMn). ShSY5Y was cultured in MEM/F12 containing 10% heat inactivated fetal bovine serum (FBS) (Invitrogen/GIBCO, Grand Island, N.Y.). IMR-32 was cultured in MEM containing 10% FBS (Invitrogen/GIBCO). SK-NSH was cultured in RPMI-1640 containing 10% FBS (Invitrogen/GIBCO). SK-Mel 3 was cultured in McCoy's 5a containing 10% FBS (Invitrogen/GIBCO). TT was cultured in F-12K containing 10% FBS (ATCC, Manassas, Va.). […] was cultured in Leibovitz's L-15 containing 10% FBS (ATCC). HUVEC was cultured with EGM-2 Bullet Kit (Lonza, Hopkinton, Mass.). HMn were cultured in MGM-4 (Lonza). All other cell lines were cultured in DMEM with 10% FBS (Invitrogen/GIBCO). Cells were incubated at 37° C. in a humidified atmosphere with 5% CO2. Cells were plated in 96-well plates to approximately 50% confluence prior to initial treatment.
(§7) Cells treated with the GPR40 agonist DHA had growth media that was replaced with each respective media containing 1% FBS and 0.1% FA-free BSA with varying concentrations of DHA (Cayman Chemical, Ann Arbor, Mich.) ranging from 0-250 μM solubilized in ethanol (Pharmco-Aaper, Brookfield, Conn.). Cells treated with the GPR40 agonist TAK-875 had growth media that was replaced with each respective media containing 10% FBS with varying concentration of TAK-875 (Selleck Chemicals, Houston, Tex.) ranging from 0-0.4 μM solubilized in dimethyl sulfoxide (Sigma-Aldrich, St. Louis, Mo.). […]

[7] = system: A2058 human melanoma cell line; assay: as above; assay type: cell-based; conditions: DHA 0-250 μM, TAK-875 0-0.4 μM, 6 days
Procedure: as §6, §7

[8] = system: A375 human melanoma cell line; assay: as above; assay type: cell-based; conditions: DHA 0-250 μM, TAK-875 0-0.4 μM, 6 days
Procedure: as §6, §7

[9] = system: IMR-32 neuroblastoma cell line; assay: as above; assay type: cell-based, human; conditions: DHA 0-250 μM, TAK-875 0-0.4 μM, 3 and 6 days
Procedure: as §6
(§8) Cells treated with the GPR40 agonist DHA had growth media that was replaced with each respective media containing 1% FBS and 0.1% FA-free BSA with varying concentrations of DHA (Cayman Chemical, Ann Arbor, Mich.) ranging from 0-250 μM solubilized in ethanol (Pharmco-Aaper, Brookfield, Conn.). Cells treated with the GPR40 agonist TAK-875 had growth media that was replaced with each respective media containing 10% FBS with varying concentration of TAK-875 (Selleck Chemicals, Houston, Tex.) ranging from 0-0.4 μM solubilized in dimethyl sulfoxide (Sigma-Aldrich, St. Louis, Mo.). Following 72 hours (TAK-875) or 144 hours (DHA) of treatment, viable cells were quantified using an absorbance-based cell viability assay (Cell Counting Kit-8, Dojindo, Kumamoto, Japan).

[10] = system: SK-NAS neuroblastoma cell line; assay: as above; assay type: cell-based, human; conditions: DHA 0-250 μM, TAK-875 0-0.4 μM, 3 and 6 days
Procedure: as §6, §8

[11] = system: SK-NSH neuroblastoma cell line; assay: as above; assay type: cell-based, human; conditions: DHA 0-250 μM, TAK-875 0-0.4 μM, 3 and 6 days
Procedure: as §6, §8

[12] = system: ShSY5Y neuroblastoma cell line; assay: as above; assay type: cell-based, human; conditions: DHA 0-250 μM, TAK-875 0-0.4 μM, 3 and 6 days
Procedure: as §6, §8

[13] = system: breast cancer cell line MCF-7; assay: as above; assay type: cell-based, human; conditions: TAK-875, 6 days
Procedure: as §6, with “treatment. […]” for “treatment.”

[14] = system: breast cancer cell line MDA-MB-321; assay: as above; assay type: cell-based, human; conditions: TAK-875, 6 days
Procedure: as §6, with “treatment. […]” for “treatment.”

[15] = healthy human subjects, very high doses; cited from earlier work
[16] = system: control human foreskin fibroblast (Hs27) cell line; assay: Cell viability assay (Cell Counting Kit-8), Example 5; assay type: cell-based; conditions: DHA 0-250 μM, TAK-875 0-0.4 μM, 3 and 6 days
Procedure: as §6, §8

human melanocytes (HMn) = assay: as above; assay type: cell-based; conditions: HMn primary melanocytes; DHA 0-250 μM, TAK-875 0-0.4 μM; 3 and 6 days
Procedure: as §6, §8

[17] = system: human medullary thyroid carcinoma cell line (TT); assay: as above; assay type: cell-based; conditions: DHA 0-250 μM, TAK-875 0-0.4 μM, 3 and 6 days
Procedure: as §6, §8

[18] = system: malignant peripheral nerve sheath tumor (MPNST) (sNF94.3) cell line; assay: as above; assay type: cell-based; conditions: DHA 0-250 μM, TAK-875 0-0.4 μM, 3 and 6 days
Procedure: as §6, §8

[19] = system: human umbilical vein endothelial cells (HUVEC); assay: as above; assay type: cell-based; conditions: DHA 0-250 μM, TAK-875 0-0.4 μM, 3 and 6 days
Procedure: as §6, §8

[20] = rat, in vivo; cited from earlier work
[21] = system: human melanoma (A2058) xenograft; assay: Murine subcutaneous xenograft model of human melanoma, established tumors, oral TAK-875; assay type: in vivo, SCID mice; conditions: 100 mg/kg/day oral, N=7/group
Procedure: The subcutaneous murine xenograft model of human melanoma was created in 6-week old severe combined immunodeficiency (SCID) mice (Jackson Laboratories, Bar Harbor, Me.) by subcutaneous injection of 1×10^6 human melanoma cells (A2058) in […] of PBS (Invitrogen/GIBCC) into the left flank of each animal. Animal weights and tumor dimensions were measured every 48 hours. Tumor volume was calculated using the following formula: volume=length×width^2×0.52. In accordance with the methods disclosed in Example 2, a murine subcutaneous xenograft model of human melanoma was prepared and used to test the effect of once daily oral TAK-875 on the growth of established melanoma tumors in vivo. Animals were treated daily for 14 days with either a control solution or an oral solution of TAK-875 (100 mg/kg/day) from the time their tumor volume reached 200 mm^3. […] Most importantly the change in tumor volume from start of drug treatment to completion of 14 days of treatment, was 77% lower in the TAK-875 group compared to placebo (P=0.04, FIG. 3G).

Cc1cc(OCCCS(C)(=O)=O)cc(C)c1-c1cccc(COc2ccc3c(c2)OC[C@H]3CC(=O)O)c1 [TAK-875]
effect on growth / toxicity in control fibroblasts [1]: did not influence the growth | effect on growth / viable cell count (percent of control) [2]: robust and selective cytotoxic effect | effect on growth / viable cell count (percent of control) [3]: robust and selective cytotoxic effect | effect on growth / viable cell count (percent of control) [4]: robust and selective cytotoxic effect | effect on growth [5]: did not influence the growth | cell viability [6]: significant decrease in cell viability | cell viability [7]: significant decrease in cell viability | cell viability [8]: significant decrease in cell viability | cell viability [9]: significantly attenuated viability | cell viability [10]: significantly attenuated viability | cell viability [11]: significantly attenuated viability | cell viability [12]: significantly attenuated viability | cell viability [13]: decrease in cell viability was observed at high concentrations | cell viability [14]: decrease in cell viability was observed at high concentrations | safety and tolerability [15]: safe and well tolerated | cell viability / toxicity in control cell line [16]: Little to no effect; also recorded: little effect; also recorded: Toxicity was observed in the control Hs27 cell line at high concentrations | cell viability (human melanocytes (HMn)): dramatic decrease in cell viability | cell viability [17]: pronounced decrease | cell viability [18]: pronounced effect | cell viability [19]: minimal change in viability | safety and tolerability [20]: safe and well tolerated | tumors smaller in volume versus placebo ([21]; 14 days, from tumor volume 200 mm^3, P=0.03): 62% | tumors smaller in weight versus placebo ([21]; 14 days, from tumor volume 200 mm^3, P=0.07): 46% | animal weights versus placebo ([21]; 14 days): not significantly different | change in tumor volume from start of drug treatment to completion of 14 days, lower compared to placebo ([21]; P=0.04): 77%

CC/C=C\C/C=C\C/C=C\C/C=C\C/C=C\C/C=C\CCC(=O)O [DHA, docosahexaenoic acid]
effect on growth / toxicity in control fibroblasts [1]: no growth inhibition | cell viability / toxicity in control cell line [16]: Little to no effect; also recorded: little effect; also recorded: Toxicity was observed in the control Hs27 cell line at high concentrations

O=C(O)CCc1ccc(NCc2cccc(Oc3ccccc3)c2)cc1 [GW9508]
effect on growth / toxicity in control fibroblasts [1]: not toxic | effect on growth / viable cell count (percent of control) [2]: profound inhibitory effect on the growth | effect on growth / viable cell count (percent of control) [3]: profound inhibitory effect on the growth | effect on growth / viable cell count (percent of control) [4]: profound inhibitory effect on the growth
